Reference: patent US3983230A, “Antibiotic siomycin A derivatives and production thereof” (priority 1973, dated 1976)
≈ marks a conversion by molar mass, not a printed value. Like-named read-outs stand apart in the source and are kept apart here.

Key:
[1] = Solubility in 0.1% aqueous sodium hydrogencarbonate (distilled water for sodium salts), Table 1; assay type: physicochemical; details: 0.1% aqueous solution of sodium hydrogencarbonate
Excerpt: The solubility in various solvents of several specific products obtained by the process of the present invention are shown in Table 1 in comparison with the solubility of siomycin A.

[2] = system: Bacillus subtilis PCI 219; assay: Minimum inhibitory concentration, Bacillus subtilis PCI 219; assay type: cell-based
Bacillus anthracis = assay type: cell-based
[3] = system: Staphylococcus aureus FDA 219PJC-1; assay: Minimum inhibitory concentration, Staphylococcus aureus FDA 219PJC-1; assay type: cell-based
[4] = system: Staphylococcus aureus 80257; assay: Minimum inhibitory concentration, Staphylococcus aureus 80257; assay type: cell-based
[5] = system: Diplococcus pneumoniae type I; assay: Minimum inhibitory concentration, Diplococcus pneumoniae type I; assay type: cell-based
[6] = system: Streptococcus pyogenes C-203; assay: Minimum inhibitory concentration, Streptococcus pyogenes C-203; assay type: cell-based
gram-positive bacteria = assay: Antibacterial activity against gram-positive bacteria; assay type: cell-based
Excerpt: The half esters of siomycin A and salts thereof show activities against a variety of microorganisms.

[7] = system: Diplococcus pneumoniae type I; assay: Therapeutic effect in mice infected with Diplococcus pneumoniae type I; assay type: in vivo; details: i.p. infection with Diplococcus pneumoniae type I, subcutaneous at 0, 4 and 8 hours, survival 7 days
Experimental: (§1) The therapeutic effect of sodium salts of the half ester of siomycin A with dicarboxylic acid in mice against experimental infections are shown in Table 3.
(§2) A group of 10 mice weighing 19-21 g were infected with a standardized inoculum of Diplococcus pneumoniae type or Streptococcus pyogenes C-203 by intraperitoneal injection.
(§3) The sodium salts of half esters of siomycin A with the dicarboxylic acid were administered subcutaneously to the mice at 0, 4 and 8 hours after infection and survival of infected mice was examined for 7 days after infection.

[8] = system: Streptococcus pyogenes C-203; assay: Therapeutic effect in mice infected with Streptococcus pyogenes C-203; assay type: in vivo; details: i.p. infection with Streptococcus pyogenes C-203, subcutaneous at 0, 4 and 8 hours, survival 7 days
Experimental: as §1, §2, §3

[9] = background, cited from earlier work
[10] = Qualitative solubility in various solvents (text, Examples)

Q: With `C=C(NC(=O)C(=C)NC(=O)c1csc(C2=N[C@@H]3c4csc(n4)[C@H]4NC(=O)c5csc(n5)[C@H]([C@](C)(O)[C@@H](C)O)NC(=O)[C@H]5CSC(=N5)/C(=C/C)NC(=O)[C@H]([C@@H](C)O)NC(=O)c5csc(n5)[C@]3(CC2)NC(=O)[C@H](C)NC(=O)C(=C)NC(=O)C(=C)NC(=O)[C@H](C(C)C)N[C@@H]2C=Cc3c([C@H](C)O)cc(nc3[C@H]2O)C(=O)O[C@@H]4C)n1)C(N)=O` [Siomycin A, siomycin A] as the molecule, how does the Solubility [1] read?
A: 0.00015%

Q: And the Minimum inhibitory concentration [2]?
A: 0.39 µg/mL (≈ 0.237 µM)

Q: What about the Minimum inhibitory concentration (Bacillus anthracis) of the same molecule?
A: 0.78 µg/mL (≈ 0.473 µM)

Q: And the Minimum inhibitory concentration [3]?
A: 0.39 µg/mL (≈ 0.237 µM)

Q: What about the Minimum inhibitory concentration [4] of the same molecule?
A: 0.39 µg/mL (≈ 0.237 µM)

Q: And the Minimum inhibitory concentration [5]?
A: 0.1 µg/mL (≈ 0.0606 µM)

Q: What about the Minimum inhibitory concentration [6] of the same molecule?
A: 0.1 µg/mL (≈ 0.0606 µM)

Q: What about the “minimum inhibitory concentration against gram-positive bacteria” value (gram-positive bacteria) of the same molecule?
A: 0.1 to 0.78 µg/mL

Q: What about the ED50 [7] of the same molecule?
A: 23.2 mg/kg

Q: And the ED50 [8]?
A: 75.2 mg/kg

Q: And the Solubility ([9]; butanol)?
A: slightly soluble

Q: What about the Solubility ([9]; chloroform) of the same molecule?
A: slightly soluble

Q: And the Solubility ([9]; dioxane)?
A: soluble

Q: And the Solubility ([9]; ethanol)?
A: slightly soluble

Q: What about the Solubility ([9]; methanol) of the same molecule?
A: slightly soluble

Q: And the Solubility ([9]; water)?
A: almost insoluble

Q: What about the Solubility ([10]; dilute alkaline solution) of the same molecule?
A: almost insoluble

Q: What about the Solubility ([10]; water) of the same molecule?
A: almost insoluble
